Here are results for one compound from US8359784B2, “Method for controlling subterranean termite activity by forming a barrier” (FMC Corporation, priority 2009, dated 2013).

The experiment has as its system Formosean subterranean termites (Coptotermes formosanus). The experiment can be described thus: Subterranean termite activity on treated wooden frame structures (sheds), field test. It counts as in vivo. From the text:
Twelve wooden frame structures (4 ft by 3 ft by 4 ft high, four to receive treatment with a bifenthrin solution, four to receive a commercial borate standard treatment and four to be used as untreated controls) were built on one inch thick concrete pads in an area of high subterranean termite pressure, Formosean subterranean termites (Coptotermes formosanus). The structures were constructed using pressure treated sill plates, untreated southern yellow pine studs and untreated plywood walls. A two inch diameter polyethylene pipe was installed in a hole in the center of each concrete pad to simulate a plumbing drain installation, leaving a small gap between the pad and the pipe. A piece of wood was inserted in the gap to encourage local termite pressure. […] Termite activity surrounding each structure was monitored by installing commercially available in-ground termite monitors (FIRSTLINE® Defender kits available from FMC Corporation) about one foot from each outside face, a total of four monitors per structure. […] Termite activity was measured in each structure by visually inspecting the inside and outside walls and the area around the polyethylene pipe for termite damage and for construction of shelter tubes at for up to 18 months after treatment. […]

`Cc1c(COC(=O)[C@@H]2[C@H](/C=C(\Cl)C(F)(F)F)C2(C)C)cccc1-c1ccccc1` (racemic) [Bifenthrin, 2-methylbiphenyl-3-ylmethyl (Z)-(1RS)-cis-3-(2-chloro-3,3,3-trifluoroprop-1-enyl)-2,2-dimethyl cyclopropanecarboxylate]: the “Termite damage or damage to the wood piece inserted in the simulated plumbing drain hole” value (up to 18 months after treatment) is “None of the bifenthrin treated structures had any indication of termite damage or damage to the wood piece”. Besides, the “Damage to structures due to termite activity” value (visual inspection up to 18 months after treatment) was “very little or no damage due to termite activity”.
